{
  "source": "patent US20210196779A1",
  "about": "“Compositions and Methods for Treating Steroid Hormone-Related Diseases or Disorders” (YALE UNIVERSITY, priority 2018, published 2021)",
  "key": {"[1]": {"molecular_target": "T1, glucocorticoid receptor (GR) (Homo sapiens, UniProt P04150)", "T1 sequence (P04150 whole entry)": "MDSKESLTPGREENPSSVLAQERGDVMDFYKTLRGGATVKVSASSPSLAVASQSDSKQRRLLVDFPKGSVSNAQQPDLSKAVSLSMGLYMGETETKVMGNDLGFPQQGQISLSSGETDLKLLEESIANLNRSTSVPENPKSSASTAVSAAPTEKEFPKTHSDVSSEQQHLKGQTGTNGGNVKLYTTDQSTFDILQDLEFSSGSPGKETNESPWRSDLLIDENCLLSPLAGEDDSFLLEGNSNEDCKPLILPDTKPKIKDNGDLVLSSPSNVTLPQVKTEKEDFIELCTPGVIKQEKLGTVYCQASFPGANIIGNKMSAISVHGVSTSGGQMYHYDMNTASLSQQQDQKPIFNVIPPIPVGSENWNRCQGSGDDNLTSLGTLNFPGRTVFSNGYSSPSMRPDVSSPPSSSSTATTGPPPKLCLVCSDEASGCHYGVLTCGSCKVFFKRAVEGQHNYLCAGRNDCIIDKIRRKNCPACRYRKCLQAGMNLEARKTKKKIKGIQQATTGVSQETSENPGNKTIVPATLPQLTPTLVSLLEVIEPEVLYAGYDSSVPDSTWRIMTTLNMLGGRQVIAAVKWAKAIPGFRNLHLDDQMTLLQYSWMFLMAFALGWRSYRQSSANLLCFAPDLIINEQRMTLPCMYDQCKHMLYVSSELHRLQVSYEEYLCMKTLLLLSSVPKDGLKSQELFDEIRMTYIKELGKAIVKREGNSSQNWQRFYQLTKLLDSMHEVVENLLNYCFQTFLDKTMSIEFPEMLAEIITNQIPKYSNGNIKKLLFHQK", "experiment": "PSA-luciferase reporter assay, DEX induced, 22RV1 cells", "assay_type": "cell-based", "set-up": "endogenous in cells", "settings": "22RV1 PSA-luciferase reporter cells", "protocol": "(§1) Reporter cells were treated with herbal extracts at 30, 100, 300, and 1000 μg/ml for 24 h in a 37° C.-CO2 incubator. DHT (25 nM) was used to stimulate androgen receptor activity. Dexamethasone (50 nM) was used to stimulate glucocorticoid receptor activity Cells were lysed using luciferase lysis buffer after which luciferase buffer with luciferin was added to generate luminescence. Luminescence was recorded using a luminescence microplate reader."}, "[2]": {"molecular_target": "T1, glucocorticoid receptor (GR)", "experiment": "PSA-luciferase reporter assay, DEX induced, PC3 cells", "assay_type": "cell-based", "set-up": "Western blot analysis for AR and GR protein expression in LNCaP, 22RV1 and PC3 cells; endogenous in cells; host or cells: PC3", "protocol": "as §1"}, "[3]": {"tested_on": "MDAMB-231 cells", "experiment": "Cell growth assay, MDAMB-231 breast cancer cells", "assay_type": "cell-based", "settings": "4 days", "protocol": "(§2) MCF7, T47D, MDA-MB-453, MDA-MB-231 breast cancer cells were grown in corning T75 cell culture flask in RPMI1640 medium supplemented with 5% FBS, 50 μg/ml Kanamycin in a 37° C., 5% CO2 incubator.\n(§3) 20,000 cells in 1 ml of medium (phenol red free RPMI1640, 5% charcoal-dialysis FBS, 50 μg/ml Kanamyacin) were seeded per well of a 24-well plate and incubated in a 37° C. incubator with 5% CO2 overnight. Different concentrations of herbal extract were added to each well in order to have final concentrations from 50 μg/ml to 500 μg/ml. For prostate cancer cells, DHT (25 nM) was used to stimulate androgen receptor activity. For glucocorticoid receptor overexpressed LNCaP cells, dexamethasone (50 nM) was used to stimulate glucocorticoid receptor activity. For all breast cancer cells, E2 (10 nM) was used to stimulate ER activity. Control medium without any steroid hormone was used as a control setting. After 4 days of incubation, cells were fixed and stained for 2 h with 0.5% methylene blue in 50% ethanol, followed by washing with tap water to remove unbound dye. Plates were air dried and then cells were dissolved in 1% sarkosyl (sodium lauroyl sarcosinate) by shaking at room temperature for 3 h. Cell growth was quantified based on the amount of methylene blue adsorbed by the cells as measured by a spectrophotometer (Molecular Devices) at 595 nm. […]"}, "[4]": {"tested_on": "Poly[ADP-ribose] polymerase-1 (PARP-1)", "experiment": "Western blot, MCF7 cells, PARP-1", "assay_type": "cell-based", "settings": "24 h", "protocol": "Western blot analysis was used to determine the protein expression using protein specific antibodies.\nTotal cell lysis was conducted using 2×SDS sample buffer (62.5 mM Tris-HCl, 2% SDS, 10% glycerol, 50 mM DTT, and 0.05% bromophenol blue). The samples were sonicated for 10 s to shear DNA. Cell nuclei were isolated using Tris buffer saline with 0.4% NP40. Cell extracts were then electrophoresed through 10% SDS-polyacrylamide gels and transferred to 0.2 μm nitrocellulose membranes (Bio-Rad Laboratories, Hercules, Calif.) with a Miniprotein II transferring apparatus (Bio-Rad). The membranes were blocked and probed in TBS-T buffer (1×TBS buffer, 0.2% Tween 20) containing 5% non-fat milk. Monoclonal rabbit anti-AR (1:5000), was used to detect androgen receptor (Abcam #133273), Glucocorticoid Receptor (D8H2) XP® Rabbit mAb #3660, ERa Antibody (F-10): sc-8002, BRD4 (E2A7X) Rabbit mAb #13440, Brd2 (D89B4) Rabbit mAb #5848, PARP (46D11) Rabbit mAb #9532, Acetyl-Histone H3 (Lys27) (D5E4) XP® Rabbit mAb #8173 and a monoclonal actin antibody diluted 1:2500 (Sigma, St. Louis, Mo.) was used to detect β-actin as the internal control to confirm equal protein loading. […] Enhanced chemiluminescence reagents (Perkin-Elmer Life Science Products, Boston, Mass.) were used to visualize the immunoreactive bands and the densities of protein bands were scanned analyzed using ImageJ software from the NIH."}, "[5]": {"experiment": "Body weight of nude mice during the treatment", "assay_type": "in vivo", "settings": "equivalent dose to Y1830 (2.2 mg/kg, PO, B.I.D.), 11 days", "protocol": "22RV1 prostate cancer cells 5×10^6 cells in 100 μl Matrigel were injected subcutaneously into 10 week old male NCR nude mice. When 22RV1 tumor reached 5 mm×5 mm, mice were orally fed with Y1830 (water extract, 500 mg/kg, PO, B.I.D, N5) and RGA (or the fraction comprising RGA) (equivalent dose to Y1830: 2.2 mg/kg, PO, B.I.D.) for 11 days. Tumor volume was estimated by using the formula length×width^2/2.\nWhen tumors reached 5 mm×5 mm, Y1830 water extract (500 mg/kg, BID, PO) and RGA (or the fraction comprising RGA) at equivalent dose to Y1830 were used to treat animals for 11 days. […] Therefore, it is further concluded that compounds other than molecules in RGA containing fraction of Y1830 total extract may also have anti-tumor activity or prevent tumor to develop drug resistant."}, "[6]": {"tested_on": "T4D cells", "experiment": "Cell growth assay, T4D breast cancer cells", "assay_type": "cell-based", "settings": "under E2 stimulation, 4 days", "protocol": "as §2, §3"}, "[7]": {"tested_on": "different prostate cell lines", "experiment": "Growth of different prostate cell lines, all conditions", "assay_type": "cell-based", "settings": "under all conditions, up to 500 ng/ml", "protocol": "20,000 cells in 1 ml of medium (phenol red free RPMI1640, 5% charcoal-dialysis FBS, 50 μg/ml Kanamyacin) were seeded per well of a 24-well plate and incubated in a 37° C. incubator with 5% CO2 overnight. […] For prostate cancer cells, DHT (25 nM) was used to stimulate androgen receptor activity. For glucocorticoid receptor overexpressed LNCaP cells, dexamethasone (50 nM) was used to stimulate glucocorticoid receptor activity. For all breast cancer cells, E2 (10 nM) was used to stimulate ER activity. Control medium without any steroid hormone was used as a control setting. After 4 days of incubation, cells were fixed and stained for 2 h with 0.5% methylene blue in 50% ethanol, followed by washing with tap water to remove unbound dye. Plates were air dried and then cells were dissolved in 1% sarkosyl (sodium lauroyl sarcosinate) by shaking at room temperature for 3 h. Cell growth was quantified based on the amount of methylene blue adsorbed by the cells as measured by a spectrophotometer (Molecular Devices) at 595 nm. All experiments were performed in triplicate wells and were repeated at least three times."}},
  "data": [
    {"smiles": "CC(=O)OCC1OC(Oc2cc3c(c(O)c2C)C(=O)c2ccc(O)cc2C3=O)C(OC2OC(C)C(O)C(O)C2O)C(O)C1O", "note": "[RGA, 1,3,6-Trihydroxy-2-methyl-9,10-anthracenedione 3-O-[α-L-Rhamnopyranosyl-(1→2)-6-O-acetyl-β-D-glucopyranoside]]", "values": [
      {"measurement": "inhibitory effect on DEX induced transcriptional response", "setting": "[1]", "result": "inhibitory effect"},
      {"measurement": "inhibitory effect on DEX induced transcriptional response", "setting": "[2]", "result": "inhibitory effect"},
      {"measurement": "inhibition of growth of triple negative MDAMB-231 cells", "setting": "[3]", "result": "inhibited the growth"},
      {"measurement": "PARP-1 protein expression", "setting": "[4]", "result": "downregulate"},
      {"measurement": "animal body weight loss", "setting": "[5]", "result": "did not cause animal body weight loss"},
      {"measurement": "inhibitory effect on T4D cell growth", "setting": "[6]", "result": "strong inhibitory effect"}
    ]},
    {"smiles": "Cc1c(OC2OC(CO)C(O)C(O)C2OC2OC(C)C(O)C(O)C2O)cc2c(c1O)C(=O)c1ccc(O)cc1C2=O", "note": "[RG, 1,3,6-Trihydroxy-2-methyl-9,10-anthracenedione 3-O-[α-L-Rhamnopyranosyl-(1→2)-β-D-glucopyranoside]]", "values": [
      {"measurement": "inhibitory effect on cell growth (in words)", "setting": "[7]", "result": "did not any show inhibitory effect"}
    ]}
  ]
}
